Here are results for four molecules from the NIST ThermoML archive (doi:10.1021/je0502546).

The conditions of data set [1]: 101 kPa, Liquid; for viscosity: Capillary tube (Ostwald / Ubbelohde) method.
A short description of data set [2]: refractive index (Na D-line) (dimensionless). To be noted: 101.33 kPa, Liquid, Standard Abbe refractometry.

± gives the expanded uncertainty stated by the source.

By mass density is commonly meant mass per unit of volume. Broadly, the viscosity is the internal friction of a fluid under shear. What is called refractive index is a measure of how strongly the sample bends light. With `COc1ccccc1` [anisole], the mass density was found to be 993.8 ± 0.44 kg/m3 in data set [1] (293.15 K) and 984.37 ± 0.44 kg/m3 in data set [1] (303.15 K). In addition, the figures for the viscosity in data set [1] (293.15 K) and in data set [1] (303.15 K) were 1.084 ± 0.01 mPa·s and 0.931 ± 0.009 mPa·s, respectively. The results for the refractive index in data set [2] (293.15 K) and in data set [2] (303.15 K) were 1.5177 ± 0.0007 and 1.5124 ± 0.0007, respectively.
In the case of `CCCCc1ccccc1` [butylbenzene], the mass density in data set [1] (293.15 K) was 861.26 ± 0.39 kg/m3; in data set [1] (303.15 K) it was 852.23 ± 0.39 kg/m3. The viscosity worked out at 1.034 ± 0.009 mPa·s in data set [1] (293.15 K) and 0.893 ± 0.008 mPa·s in data set [1] (303.15 K). Also, the refractive index in data set [2] (293.15 K) is 1.4895 ± 0.0007; in data set [2] (303.15 K) it was 1.4845 ± 0.0007.
Turning to `CCCc1ccccc1` [propylbenzene], the mass density in data set [1] (293.15 K) amounted to 863.13 ± 0.39 kg/m3; in data set [1] (303.15 K), 854.71 ± 0.39 kg/m3. Also, the results for the viscosity in data set [1] (293.15 K) and in data set [1] (303.15 K) were 0.855 ± 0.008 mPa·s and 0.744 ± 0.007 mPa·s, respectively. Also, the refractive index in data set [2] (293.15 K) turned out to be 1.4916 ± 0.0007; in data set [2] (303.15 K) it was 1.4858 ± 0.0007.
For `CCc1ccccc1` [ethylbenzene], the mass density in data set [1] (293.15 K) is reported as 866.95 ± 0.22 kg/m3; in data set [1] (303.15 K), 858.01 ± 0.22 kg/m3. In addition, the viscosity was found to be 0.669 ± 0.006 mPa·s in data set [1] (293.15 K) and 0.596 ± 0.005 mPa·s in data set [1] (303.15 K). For the same molecule, the values for the refractive index in data set [2] (293.15 K) and in data set [2] (303.15 K) were 1.4957 ± 0.0007 and 1.4902 ± 0.0007, respectively.
